Test results reported in article PMC10381184, “Unprecedented Antimicrobial and Cytotoxic Polyketides from Cultures of Diaporthe africana sp. nov” (Journal of Fungi, 2023).
In brackets after ≈: the same amount, converted by molar mass. Like-named read-outs stand apart in the source and are kept apart here. Marks after values point to notes of the source that are not given here.

Experiments:
[1] = test system: human endocervical adenocarcinoma KB 3.1; assay: MTT-based cytotoxicity assay; assay type: cell-based; details: KB3.1, starting concentration 37 µg/mL, read-out: IC50
Protocol: (§1) The Minimum Inhibitory Concentration (MIC) of the isolated metabolites (1–8) was evaluated using serial dilution assays in a 96-well microtiter plate against a panel of Gram-positive bacteria, namely Bacillus subtilis DSM 10, Mycobacterium smegmatis ATCC 700084 and Staphylococcus aureus DSM 346; Gram-negative bacteria, including Acinetobacter baumannii DSM 30008, Chromobacterium violaceum DSM 30191, Escherichia coli DSM 1116 and Pseudomonas aeruginosa PA14 and fungal cultures of Candida albicans DSM 1665, Mucor hiemalis DSM 2656, Rhodotorula glutinis DSM 10134, Schizosaccharomyces pombe DSM 70572 and Wickerhamomyces anomalus DSM 6766, according to previously described protocols. The MTT-based cytotoxicity assay was performed against several cancer cell lines (human endocervical adenocarcinoma KB 3.1, mouse fibroblasts L929, squamous cancer A431, breast cancer MCF-7, lung cancer A549, ovary cancer SK-OV-3, and prostate cancer PC-3) in accordance with our previously established protocols.

[2] = test system: mouse fibroblasts L929; assay: MTT-based cytotoxicity assay; assay type: cell-based; details: starting concentration 37 µg/mL, read-out: IC50
Protocol: as §1

[3] = test system: Bacillus subtilis DSM 10; assay: MIC serial dilution assay; assay type: cell-based; design: key: (-): No inhibition
Protocol: as §1

[4] = test system: Acinetobacter baumannii DSM 30008; assay: MIC serial dilution assay; assay type: cell-based; design: key: (-): No inhibition; details: Acinetobacter baumanii, starting concentration 66.7 μg/mL
Protocol: as §1

[5] = test system: Pseudomonas aeruginosa PA14; assay: MIC serial dilution assay; assay type: cell-based; design: key: (-): No inhibition
Protocol: as §1

[6] = test system: Chromobacterium violaceum DSM 30191; assay: MIC serial dilution assay; assay type: cell-based; design: key: (-): No inhibition; details: starting concentration 66.7 μg/mL
Protocol: as §1

[7] = test system: Mucor hiemalis DSM 2656; assay: MIC serial dilution assay; assay type: cell-based; design: key: (-): No inhibition
Protocol: as §1

[8] = test system: Mycobacterium smegmatis ATCC 700084; assay: MIC serial dilution assay; assay type: cell-based; design: key: (-): No inhibition
Protocol: as §1

[9] = test system: Wickerhamomyces anomalus DSM 6766; assay: MIC serial dilution assay; assay type: cell-based; design: key: (-): No inhibition; details: starting concentration 66.7 μg/mL
Protocol: as §1

[10] = test system: Candida albicans DSM 1665; assay: MIC serial dilution assay; assay type: cell-based; design: key: (-): No inhibition; details: starting concentration 66.7 μg/mL
Protocol: as §1

[11] = test system: Schizosaccharomyces pombe DSM 70572; assay: MIC serial dilution assay; assay type: cell-based; design: key: (-): No inhibition
Protocol: as §1

[12] = test system: Escherichia coli DSM 1116; assay: MIC serial dilution assay; assay type: cell-based; design: key: (-): No inhibition; details: starting concentration 66.7 μg/mL
Protocol: as §1

[13] = test system: Rhodotorula glutinis DSM 10134; assay: MIC serial dilution assay; assay type: cell-based; design: key: (-): No inhibition; details: Rhodoturula glutinis, starting concentration 66.7 μg/mL
Protocol: as §1

[14] = test system: Staphylococcus aureus DSM 346; assay: MIC serial dilution assay; assay type: cell-based; design: key: (-): No inhibition
Protocol: as §1

[15] = test system: panel of bacteria and fungi; assay: Antimicrobial serial dilution assay, whole panel; assay type: cell-based; details: result in words
Protocol: as §1

[16] = test system: mammalian cell lines; assay: cells; assay type: cell-based; details: mammalian cell lines, result in words
Protocol: as §1

[17] = test system: ovary cancer SK-OV-3; assay: MTT-based cytotoxicity assay; assay type: cell-based; details: SKOV-3, starting concentration 37 µg/mL, read-out: IC50
Protocol: as §1

[18] = test system: breast cancer MCF-7; assay: MTT-based cytotoxicity assay; assay type: cell-based; details: MCF-7, starting concentration 37 µg/mL, read-out: IC50
Protocol: as §1

[19] = test system: lung cancer A549; assay: MTT-based cytotoxicity assay; assay type: cell-based; details: starting concentration 37 µg/mL, read-out: IC50
Protocol: as §1

[20] = test system: prostate cancer PC-3; assay: MTT-based cytotoxicity assay; assay type: cell-based; details: PC-3; starting concentration 37 µg/mL; read-out: IC50
Protocol: as §1

[21] = test system: squamous cancer A431; assay: MTT-based cytotoxicity assay; assay type: cell-based; details: A431, starting concentration 37 µg/mL, read-out: IC50
Protocol: as §1

[22] = test system: MptpB; details: result in words; ref 63 (Cui et al.); cited from earlier work
[23] = DSM10, starting concentration 66.7 μg/mL, read-out: MIC
[24] = starting concentration 66.7 μg/mL
[25] = DSM2656, starting concentration 66.7 μg/mL, read-out: MIC
[26] = DSM346, starting concentration 66.7 μg/mL, read-out: MIC

Row | Molecule | IC50 ([1]; Homo sapiens, KB 3-1) | IC50 ([2]; Mus musculus) | MIC [4] | MIC [5, 24] | MIC [6] | MIC [8, 24] | MIC [9] | MIC [10] | MIC [12] | MIC [3, 24] | MIC [11, 24] | MIC [13] | MIC [14, 24] | further results
1 | CC(C)=CCc1ccc(O)c2c1C(O)(c1cc(C)cc3c1O[C@H](C(C)(C)O)CO3)NC2=O (stereo partly drawn) [Compound 4, diaporisoindole F1/F2] | 31900 nM | 59200 nM | - | - | - | - | - | - | - |  |  |  |  | MIC [3, 23]: 66.6 µg/mL (≈ 152 µM); MIC [7, 25]: 33.3 µg/mL (≈ 75.8 µM); MIC ([11]; DSM70572, starting concentration 66.7 μg/mL, read-out: MIC): 33.3 µg/mL (≈ 75.8 µM); MIC ([13]; Rhodotorula glutinis, DSM10134, read-out: MIC): 33.3 µg/mL (≈ 75.8 µM); MIC [14, 26]: 66.6 µg/mL (≈ 152 µM)
2 | CCC(C)C1OC(=O)CNC(=O)CNC(=O)[C@H]([C@@H](C)O)NC(=O)C(C)C(O)CC(O)CC/C=C/C1C (stereo partly drawn) [Compound 1, eucalactam B] | > 72000 nM | > 72000 nM | - | - | - | - | - | - | - | - | - | - | - | antimicrobial activity against the tested microorganisms [15]: devoid of any activity; cytotoxic effect [16]: did not show any cytotoxic effect; MIC [7, 24]: -
3 | CN(C)[C@@H]1C(=O)C(C(N)=O)=C(O)[C@@]2(O)C(=O)C3=C(O)c4c(O)cccc4[C@@](C)(O)[C@H]3[C@H](O)[C@@H]12 [Oxytetracyclin, reference compound] |  |  |  |  | 0.83 ^o µg/mL |  |  |  | 1.7 ^o µg/mL | 8.3 ^o µg/mL |  |  | 0.83 ^o µg/mL | 
4 | beauvericin [Compound 8] |  |  | - | - | - | 8.3 µg/mL | - | - | - | 8.3 µg/mL | 33.3 µg/mL | 66.6 µg/mL | 8.3 µg/mL | IC50 [17]: 3300 nM; IC50 [18]: 2000 nM; IC50 [1]: 2300 nM; IC50 [19]: 2600 nM; IC50 [20]: 1900 nM; IC50 [21]: 2400 nM; IC50 [2]: 2800 nM; MIC [7, 24]: 66.6 µg/mL
5 | CNC(C)C1CCC(N)C(OC2C(N)CC(N)C(OC3OCC(C)(O)C(NC)C3O)C2O)O1 (stereo not drawn) [Gentamicin, reference compound] |  |  |  |  |  |  |  |  |  |  |  |  |  | MIC ([5]; PA14, starting concentration 66.7 μg/mL, read-out: MIC): 0.21 µg/mL (≈ 0.44 µM)
6 | CC(C)=CCc1ccc(O)c2c1[C@@H](c1cc(C)cc3c1O[C@H](C(C)(C)O)CO3)NC2=O [diaporisoindole A] |  |  |  |  |  |  |  |  |  |  |  |  |  | inhibitory activity against MptpB [22]: potent inhibitory activity
7 | CCC(C)C=C(C)C=CC1=CC2=C(Cl)C(=O)C3(C)OC(=O)C(C(C)O)C3C2=CO1 (stereo not drawn) [Compound 7, isochromophilonol A1/A2] | 5300 nM | 12900 nM | - | - | - |  | - | - | - |  | - | - |  | IC50 ([17]; Homo sapiens, SK-OV-3): 3300 nM; IC50 ([18]; Homo sapiens, MCF7): 900 nM; IC50 ([19]; Homo sapiens): 2300 nM; IC50 [20]: 1100 nM; IC50 ([21]; Homo sapiens, A-431): 4100 nM; MIC [3, 23]: 16.6 µg/mL (≈ 39.6 µM); MIC [7, 25]: 8.3 µg/mL (≈ 19.8 µM); MIC ([8]; Mycolicibacterium smegmatis, ATCC700084, starting concentration 66.7 μg/mL, read-out: MIC): 16.6 µg/mL (≈ 39.6 µM); MIC [14, 26]: 66.6 µg/mL (≈ 159 µM)
8 | O=C(O)c1cn(C2CC2)c2cc(N3CCNCC3)c(F)cc2c1=O [Ciprobay, reference compound] |  |  |  |  |  |  |  |  |  |  |  |  |  | MIC ([4]; Acinetobacter baumannii, DSM30008, read-out: MIC): 0.26 µg/mL (≈ 0.785 µM)
